Results as given in patent US20250289785A1, “INDOLE DERIVATIVE, METHOD FOR PREPARING SAME, AND USE THEREOF” (MITOIMMUNE THERAPEUTICS INC., priority 2021, published 2025).
Like-named read-outs stand apart in the source and are kept apart here.

Legend:
[1] = test system: NRK-49F cells; experiment: Cell death protective effect in renal fibroblasts against Erastin, glutamate and RSL3 (LDH); type: cell-based, rat; conditions: 24 h
Method: In order to identify the protective effect on renal fibroblasts, NRK-49F cells were divided into 96-well plates by 1×10^4 and cultured for 18 to 24 hours. The compounds of Examples were diluted to final concentrations of 0.1 and 1. μM, treated in each well, and incubated for 15 to 20 minutes. Erastin, glutamate, and RSL3 were treated to have final concentrations of 3 μM, 75 mM, and 3 μM, respectively, and cultured for 24 hours. In order to identify the protective effect of each compound, the degree of LDH extracellular secretion was measured using cytotoxicity LDH assay kit [Dojindo; CK12]. Briefly, at the time when the treatment of the cells with Erastin, glutamate, and RSL3 for 24 hours is completed, the supernatants containing the cells are taken by 70 μL and transferred to a new 96-well plate. The assay buffer included in the kit is added in an amount of 70 μL/well (the same amount as the sample) thereto, and then the plate is wrapped with a foil and the reaction is performed at room temperature for 15 minutes.

[2] = test system: H9C2 cells; experiment: Cell protection effect against t-BHP in heart cells (LDH release); type: cell-based; conditions: H9C2, t-BHP 40 μM, 2 hours
Method: In order to identify the protective effect with regard to heart cells, H9C2 cells were divided into 96-well plates by 1.5×10^4, and cultured for 24 hours. The respective wells were treated with compounds of the examples 3× serial diluted to final concentrations of […], then cultured for 15 to 20 minutes. After treating with t-BHP with a final concentration of 40 μM, culturing was performed for 2 hours. In order to identify the protective effect of each compound, a Cytotoxicity LDH assay kit [Dojindo; CK12] was used to measure the degree of extracellular secretion of LDH. To describe briefly, at the time point 2-hour treatment of the cells with t-BHIP was completed, 100 μL each of the supernatant in which the cells were placed was collected and moved to a new 96-well plate. 100 μL/well of the assay buffer included in the kit (same amount as the sample) was added, followed by wrapping with foil and reacting for 30 minutes at room temperature. Observing the change in color of the sample, 50 μL/well of stop solution was added, then an iD3 spectrometer was used to measure absorbance at 490 nm and calculate the EC50 values. The EC50 of the compounds of the examples is preferably no more than 1.0 μM, and more preferably no more than 0.3 μM.

[3] = Plasma and brain concentration after oral administration to ICR mice (HPLC-MS/MS); type: in vivo; conditions: 10 mg/kg; for concentration at 2 h / concentration at 24 h / AUC(0-t): ICR, mouse, po
Method: […] parameters can be represented as maximum concentration in plasma (Cmax), time taken until maximum concentration in plasma (Tmax), area under the plasma concentration-time curve (AUClast and AUCinf), and half-life (t1/2), and the like.
The compound of example 2 was orally administered to ICR mice at a dose of 10 mg/kg, and drug concentration in mouse plasma was measured using HPLC-MS/MS spectroscopy at 0.5, 1, 2, 4, 8 and 24 hours. The mouse brains were removed at 2 or 24 hours, and drug concentration in the brain was measured using HPLC-MS/MS spectroscopy. The area under the plasma concentration v. time curve (AUCinf) was measured to be […], and at 2 hours after administration drug concentration in plasma was 546 ng/mL and brain drug concentration was measured at 1043 ng/mL. […] Further, at 24 hours after administration, for Embodiment 2, drug concentration in plasma was measured to be 4.7 ng/mL and drug concentration in the brain was measured at 5.7 ng/mL. With the brain-plasma drug concentration ratio at 1.23, drug exposure in the brain was still high.
The Comparative Example compound was orally administered to ICR mice at a dose of 10 mg/kg, and drug concentration in mouse plasma was measured using HPLC-MS/MS spectroscopy at 0.5, 1, 2, 4, 8 and 24 hours. The mouse brains were removed at 2 or 24 hours, and drug concentration in the brain was measured using HPLC-MS/MS spectroscopy.

[4] = test system: H9C2 cells; experiment: Maintenance of intracellular calcium level in heart cells treated with t-BHP (FLIPR Calcium 6); type: cell-based, rat; conditions: H9C2, t-BHP 150 μM
Method: To examine the maintenance effect on calcium level in heart cells, H9C2 cells were divided into a 96-well plate by 1.5×10^4 cells/well and cultured for 24 hours. To measure intracellular calcium level, a FLIPR Calcium 6 assay kit (Molecular devices; #R8190) was used. Following the experimental method provided by the manufacturer, cells were treated with probenecid and calcium-sensitive dye for 1.75 hours, and then the cells were treated with the compound of Example 2 for 0.25 hours (the final concentration of the compound was 0.02 or 0.01 μM). And the cells were treated with t-BHP to a final concentration of 150 μM, then intracellular calcium level was measured every 30 seconds in real time.
FIG. 1 is a graph regarding the regulatory effect of the compound of Example 2 on calcium level under t-BHP treatment. The ΔF/F(Max−Min) value on the vertical axis is the difference between the maximum and minimum fluorescence intensity values of the calcium-sensitive dye after treatment with t-BHP (150 μM), and this value increases as intracellular calcium level increases.

[5] = Glutamate, 75 mM, compound 0.1 μM
[6] = Glutamate, 75 mM, compound 1.0 μM
[7] = ICR mouse, 2 hours after administration

SMILES	inhibition (%) ([1]; Erastin, 3 μM, compound 0.1 μM)	inhibition (%) ([1]; Erastin, 3 μM, compound 1.0 μM)	inhibition (%) [1, 5]	inhibition (%) [1, 6]	inhibition (%) ([1]; RSL3, 3 μM, compound 0.1 μM)	inhibition (%) ([1]; RSL3, 3 μM, compound 1.0 μM)	EC50 [2]	other results
COCc1cc(NC2CCOCC2)c2[nH]c(-c3ccccc3)cc2c1 [Example 1, 5-(methoxymethyl)-2-phenyl-N-tetrahydropyran-4-yl-1H-indol-7-amine]	96%	95%	100%	100%	98%	98%	≤ 300 nM	
COCc1cc(NC2CCCC2)c2[nH]c(-c3ccccc3)cc2c1 [Example 2, N-cyclopentyl-5-(methoxymethyl)-2-phenyl-1H-indol-7-amine]	97%	94%	100%	100%	98%	97%	≤ 300 nM	brain drug concentration [3, 7]: 1043.2 ng/mL; drug concentration in plasma [3, 7]: 546.1 ng/mL; AUClast, Brain ([3]; ICR mouse, from the 2 and 24 hr samples): 12581.1 ng·h/g; AUC(0-inf) ([3]; ICR mouse, plasma, read-out: area under the plasma concentration v. time curve (AUCinf)): 4960 ng·h/mL; concentration at 2 h ([3]; brain, 2 hours after administration, read-out: brain drug concentration): 1040 ng/mL; concentration at 24 h ([3]; brain, 24 hours after administration, read-out: drug concentration in the brain): 5.7 ng/mL; concentration at 2 h ([3]; plasma, 2 hours after administration, read-out: drug concentration in plasma): 546 ng/mL; concentration at 24 h ([3]; plasma, 24 hours after administration, read-out: drug concentration in plasma): 4.7 ng/mL; AUC(0-t) ([3]; plasma, from the 2 and 24 hr samples, read-out: AUClast, Plasma): 6600 ng·h/mL; AUC(0-t) ([3]; plasma, plasma, read-out: 0.5~24 hr AUClast): 4940 ng·h/mL; AUC(0-t) ([3]; plasma, plasma, read-out: area under the plasma concentration v. time curve (AUClast)): 4940 ng·h/mL; Kp at 2 h ([3]; brain/plasma, ICR mouse, 2 hours after administration, read-out: brain-plasma drug concentration ratio (B/P ratio)): 1.91; Kp at 24 h ([3]; brain/plasma, ICR mouse, 24 hours after administration, read-out: brain-plasma drug concentration ratio (B/P ratio)): 1.23; Kp ([3]; brain/plasma, ICR mouse, read-out: AUClast B/P ratio): 1.9; intracellular calcium level, ΔF/F(Max−Min) ([4]; compound 0.01 μM): significantly decreased; intracellular calcium level, ΔF/F(Max−Min) ([4]; compound 0.02 μM): within normal range
COCc1cc(NC2CC[S+]([O-])CC2)c2[nH]c(-c3ccccc3)cc2c1 (centres unmarked) [Example 14, 5-(methoxymethyl)-N-(1-oxothian-4-yl)-2-phenyl-1H-indol-7-amine]	96%	93%	100%	100%	97%	97%	≤ 300 nM	
CCOCc1cc(NC2CCCC2)c2[nH]c(-c3ccccc3)cc2c1 [Example 19, N-cyclopentyl-5-(ethoxymethyl)-2-phenyl-1H-indol-7-amine]	96%	95%	100%	100%	97%	96%	≤ 300 nM	
CCOCc1cc(NC2CCOCC2)c2c(c1)c(COC)c(-c1ccccc1)n2C [Example 29, 5-(ethoxymethyl)-3-(methoxymethyl)-1-methyl-2-phenyl-N-(tetrahydro-2H-pyran-4-yl)-1H-indol-7-amine]	3%	93%	17%	100%	0%	96%	300 to 1000 nM	
COCCc1cc(NC2CCOCC2)c2[nH]c(-c3ccccc3)cc2c1 [Example 41, 5-(2-methoxyethyl)-2-phenyl-N-(tetrahydro-2H-pyran-4-yl)-1H-indol-7-amine]	96%	94%	100%	100%	97%	97%	≤ 300 nM	
CCOCc1cc(NC2CCOCC2)c2[nH]c(-c3ccccc3)c(-c3ncc[nH]3)c2c1 [Example 46, 5-(ethoxymethyl)-3-(1H-imidazol-2-yl)-2-phenyl-N-(tetrahydro-2H-pyran-4-yl)-1H-indole-7-amine]	5%	64%	13%	16%	0%	5%	> 1000 nM	
CCOC(=O)c1ccc(NC2CCCCC2)c(N)c1 [Ferrostatin-1, reference compound]	98%	97%	90%	100%	97%	97%		
